According to article PMC9151520 (Archives of Toxicology, 2022):
Several values for one entry are separate records, joined by “and”; a condition that tells them apart may be missing. Equal entries are not always repeated. Structures can show the parent of a compound that is named as a salt. Where two headings read alike, the source gives them in different places.

Columns and labels:
[1] = test system: p53 signaling (p53RE-bla HCT-116 cells); assay: cells; type: cell-based
[2] = test system: p53 signaling (p53RE-bla HCT-116 cells)
[3] = test system: p53 signaling (p53RE-bla HCT-116 cells); remark: listed apart in the source
[4] = read-out: p53 activation EC50, primary screening
[5] = Homo sapiens, HCT-116, read-out: p53 activation EC50, primary screening
[6] = Homo sapiens, HCT-116, read-out: p53 activation efficacy, primary screening
[7] = read-out: p53 activation EC50, cherry pick confirmation

SMILES	p53 activation EC50, cherry pick confirmation [1]	p53 activation efficacy, cherry pick confirmation [1]	p53 activation efficacy, primary screening [1]	EC50 [1, 4]	p53 activation EC50, cherry pick confirmation [2]	p53 activation EC50, primary screening [2]	p53 activation efficacy, cherry pick confirmation [2]	p53 activation efficacy, primary screening [2]	p53 activation EC50, cherry pick confirmation [3]	p53 activation EC50, primary screening [3]	p53 activation efficacy, cherry pick confirmation [3]	p53 activation efficacy, primary screening [3]	Viability EC50, cherry pick confirmation (p53RE-bla HCT-116 cells)	Viability EC50, primary screening (p53RE-bla HCT-116 cells)	Viability efficacy, primary screening (p53RE-bla HCT-116 cells)	EC50 [1, 5]	Emax [1, 6]	Viability efficacy, cherry pick confirmation (p53RE-bla HCT-116 cells)	EC50 [1, 7]	further results
COc1ccc(C(=O)/C(Br)=C\C(=O)[O-])cc1.[Na+] [Cytembena]	inactive	inactive	55.202	21 µM	inactive	inactive	inactive	inactive	inactive	inactive	inactive	inactive	inactive	inactive	inactive	–	–	–	–	EC50 (p53RE-bla HCT-116 cells; read-out: Viability EC50, cherry pick confirmation): 43.2 µM
CN(C)c1ccc(C(=N)c2ccc(N(C)C)cc2)cc1 [Auramine hydrochloride]	inactive	inactive	–	–	inactive	inactive	inactive	inactive	inactive	inactive	inactive	inactive	inactive	inactive	inactive	3.94 µM	37.6%	inactive	–	–
CN1C(=O)N(c2ccccc2Br)Cc2cnc(Nc3ccc4c(c3)OCC(CO)O4)nc21 (centres unmarked) [PharmaGSID_48519]	–	31.694	31.571	9.59 µM	inactive	inactive	inactive	inactive	inactive	inactive	inactive	inactive	inactive	inactive	inactive	–	–	inactive	13.6 µM	–
O=S(=O)(O)c1ccccc1C=Cc1ccc(-c2ccc(C=Cc3ccccc3S(=O)(=O)O)cc2)cc1.[Na].[Na] [Disodium 4,4'-bis(2-sulfostyryl)biphenyl]	–	–	–	–	–	–	–	–	–	–	–	–	–	–	–	–	–	–	–	activity outcome in p53-bla assay [1]: also active in the absence of microsomes; p53 activation Efficacy, No MS [1]: 37.8243% and 32.5267%; EC50 ([1]; read-out: p53 activation EC50, No MS): 25.3 µM and 34.2 µM; EC50 [2]: 29.8 µM; EC50 ([2]; read-out: p53 activation EC50, RLM): 29.8 µM and 24.9 µM; activity outcome in p53-bla assay [3]: active; EC50 ([3]; read-out: p53 activation EC50, HLM): 18.8 µM and 28.2 µM; Viability EC50, HLM (p53RE-bla HCT-116 cells): inactive; Viability EC50, No MS (p53RE-bla HCT-116 cells): inactive; Viability EC50, RLM (p53RE-bla HCT-116 cells): inactive; Viability Efficacy, HLM (p53RE-bla HCT-116 cells): inactive; Viability Efficacy, No MS (p53RE-bla HCT-116 cells): inactive; Viability Efficacy, RLM (p53RE-bla HCT-116 cells): inactive
COP(=S)(OC)Oc1ccc([N+](=O)[O-])cc1 [Methyl parathion]	–	–	–	–	–	–	–	–	–	–	–	–	–	–	–	–	–	–	–	p53 activation EC50 [1]: inactive; p53 activation efficacy [1]: inactive; EC50 [2]: 9.83 µM; p53 activation efficacy [2]: 52.7126 and 58.5263; p53 activation EC50 [3]: inactive; EC50 ([3]; read-out: p53 activation EC50): 7.98 µM; Viability EC50 (p53RE-bla HCT-116 cells): inactive; Viability efficacy (p53RE-bla HCT-116 cells): inactive
Cl.Nc1ccn([C@@H]2O[C@H](CO)[C@@H](O)C2(F)F)c(=O)n1	–	111.507	94.321	0.174 µM	inactive	inactive	inactive	inactive	inactive	inactive	inactive	inactive	inactive	inactive	inactive	–	–	inactive	0.205 µM	–
O=C1c2ccccc2C(=O)C1(O)O [Ninhydrin]	–	–	–	–	inactive	inactive	inactive	inactive	inactive	inactive	inactive	inactive	inactive	inactive	inactive	41.2 µM	55.1%	inactive	–	EC50 ([1]; Homo sapiens, HCT-116, read-out: p53 activation EC50, cherry pick confirmation): 22.3 µM; Emax ([1]; Homo sapiens, HCT-116, read-out: p53 activation efficacy, cherry pick confirmation): 44.3%
C[C@H]1O[C@@H](n2cc(F)c(=O)[nH]c2=O)[C@H](O)[C@@H]1O [Doxifluridine]	–	–	–	–	–	–	–	–	–	–	–	–	–	–	–	–	–	–	–	EC50, p53 activation, cherry pick confirmation [1]: inactive; Efficacy, p53 activation, cherry pick confirmation [1]: inactive; EC50 ([1]; Homo sapiens, HCT-116, read-out: EC50, p53 activation, primary screening): 10.6 µM; Emax ([1]; Homo sapiens, HCT-116, read-out: Efficacy, p53 activation, primary screening): 83.9%; EC50, p53 activation, cherry pick confirmation [2]: inactive; EC50, p53 activation, primary screening [2]: inactive; Efficacy, p53 activation, cherry pick confirmation [2]: inactive; Efficacy, p53 activation, primary screening [2]: inactive; EC50, p53 activation, cherry pick confirmation [3]: inactive; EC50, p53 activation, primary screening [3]: inactive; Efficacy, p53 activation, cherry pick confirmation [3]: inactive; Efficacy, p53 activation, primary screening [3]: inactive; EC50, viability, cherry pick confirmation (p53RE-bla HCT-116 cells): inactive; EC50, viability, primary screening (p53RE-bla HCT-116 cells): inactive; Efficacy, viability, cherry pick confirmation (p53RE-bla HCT-116 cells): inactive; Efficacy, viability, primary screening (p53RE-bla HCT-116 cells): inactive
CO.COc1cc(Nc2c(C#N)cnc3cc(OCCCN4CCN(C)CC4)c(OC)cc23)c(Cl)cc1Cl [Bosutinib methanoate]	–	36.685	29.3917	15.4 µM	inactive	inactive	inactive	inactive	inactive	inactive	inactive	inactive	inactive	inactive	inactive	–	–	inactive	17.3 µM	–
O=C(NC(=O)c1c(F)cccc1F)Nc1cc(Cl)c(Oc2ncc(C(F)(F)F)cc2Cl)c(Cl)c1 [Chlorfluazuron]	inactive	inactive	–	–	inactive	inactive	inactive	inactive	inactive	inactive	inactive	inactive	inactive	inactive	inactive	31.4 µM	80.6%	inactive	–	–
